According to PubChem BioAssay AID1508612:

assay: passive permeability, PAMPA, ADME assay (AID 1508612); settings: pH 7.4, 30.0 min, 50.0 µM

Structure (SMILES)	Papp
O=c1cc(-c2ccc(O)c(O)c2)oc2cc(O)cc(O)c12	120 ×10⁻⁶ cm/s
COc1ccc(Nc2cnc3ccc(-c4ccc(OC)c(OC)c4)nn23)cc1	396 ×10⁻⁶ cm/s
CCN(CC)CCNC(=O)C1CCN(c2nn3cc(-c4ccc(F)cc4)nc3s2)CC1	> 1000 ×10⁻⁶ cm/s
CC[C@@H]1C(=O)N(C)c2cnc(Nc3ccc(C(=O)NC4CCN(C)CC4)cc3OC)nc2N1C1CCCC1	561 ×10⁻⁶ cm/s
CCOc1ccccc1CNS(=O)(=O)c1ccc(-c2cnc(C3CC3)o2)cc1	> 1000 ×10⁻⁶ cm/s
COc1ccc(NC(=O)c2c(C)cccc2C)cc1[S+](=O)([O-])N1CCCCCC1	738 ×10⁻⁶ cm/s
COc1cc(N2CCC(N3CCN(C)CC3)CC2)ccc1Nc1ncc(Cl)c(Nc2ccccc2P(C)(C)=O)n1	266 ×10⁻⁶ cm/s
N#CC1(c2ccc(NC(=O)c3cccnc3NCc3ccncc3)cc2)CCCC1	> 1000 ×10⁻⁶ cm/s
Fc1ccc(CN2CCOC[C@H]2c2ncc(-c3ccc(Cl)s3)[nH]2)cc1	> 1000 ×10⁻⁶ cm/s
CC(=O)c1c(C)[nH]c(C(=O)Nc2cccc([S+](=O)([O-])Nc3ccccc3C)c2)c1C	628 ×10⁻⁶ cm/s
O=C(Nc1ccc(S(=O)(=O)Nc2nccs2)cc1)c1cccnc1	< 1 ×10⁻⁶ cm/s
Cc1nc(Sc2nnnn2C)c2c(-c3ccccc3)csc2n1	826 ×10⁻⁶ cm/s
CNC1(c2ccccc2Cl)CCCCC1=O (configuration not stated)	> 1000 ×10⁻⁶ cm/s
COc1ccc(-n2nc(C3CCN(C(=O)Cc4ccc(F)cc4)CC3)[nH]c2=O)cc1	540 ×10⁻⁶ cm/s
Cc1cccc(N2CCN(C(=O)c3ccc4c(c3)C(O)CCCCCN4C)CC2)c1 (configuration not stated)	< 1 ×10⁻⁶ cm/s
N#Cc1cnccc1-c1nc(Nc2ccc(F)c(F)c2)c2ccccc2n1	269 ×10⁻⁶ cm/s
N#Cc1cccc(-c2csc(N3CCC(C(N)=O)CC3)n2)c1	450 ×10⁻⁶ cm/s
NC(=O)C1CCN(c2nc(-c3ccc(N)cc3)cs2)CC1	87.1 ×10⁻⁶ cm/s
Cc1ccnc(NC(=S)N2CCC(Nc3cccc(C(F)(F)F)c3)CC2)c1	835 ×10⁻⁶ cm/s
Cc1nn2c(c1-c1ccccc1-c1ccccc1)N(Cc1ccccc1)CCC2	381 ×10⁻⁶ cm/s
O=C(Nc1nc(-c2ccccc2)cs1)c1ccncc1NS(=O)(=O)c1cccc(Cl)c1	754 ×10⁻⁶ cm/s
O=C(NC1CCCN(c2cc(-c3ccc(F)cc3)[nH]n2)C1)c1ccc2ncccc2c1 (configuration not stated)	61.8 ×10⁻⁶ cm/s

Structure (SMILES)	Papp
COc1cccc(N2CCN(c3ncc4c(n3)CCN(Cc3ccc(Br)cc3)C4)CC2)c1	25 ×10⁻⁶ cm/s
CC1=C(C(=O)NC2CCCCC2)C(c2ccccc2Br)N=C(Nc2nc3ccccc3o2)N1 (configuration not stated)	734 ×10⁻⁶ cm/s
Cc1ccc(Cl)cc1NS(=O)(=O)c1cc2c(cc1F)NC(=O)CC2	581 ×10⁻⁶ cm/s
Cc1cccc2c1NC(=O)/C2=C/c1cc(Cl)c(O)c(Cl)c1	66.3 ×10⁻⁶ cm/s
CN(C(=O)COC(=O)c1csc(NCc2ccccc2)n1)c1ccccc1	> 1000 ×10⁻⁶ cm/s
Cc1cc(N[S+](=O)([O-])c2ccc(NC(=O)Cc3ccc(F)c(F)c3)cc2)no1	6.43 ×10⁻⁶ cm/s
CC(C)c1ccccc1-c1ncc(F)c(NCC2CCN(c3cccnc3)CC2)n1	> 1000 ×10⁻⁶ cm/s
O=c1cc(CSc2ccc(Cl)cc2)nc(-c2ccccn2)[nH]1	> 1000 ×10⁻⁶ cm/s
CC(C)Oc1ccc(-c2ccc(=O)n(CC(=O)NCCc3ccccc3)n2)cc1	> 1000 ×10⁻⁶ cm/s
CC1Oc2cc3c(-c4c(O)cc(O)c5c(O)c6c(cc45)OC(C)C(C)C6=O)c(O)cc(O)c3c(O)c2C(=O)C1C (configuration not stated)	8.5 ×10⁻⁶ cm/s
N#Cc1cccc(-c2nccc(-n3ccnc3)n2)c1	492 ×10⁻⁶ cm/s
COc1cc(=O)n2c(c1C(=O)N(C)Cc1cscn1)CCN(C(=O)c1ccc(C)cc1C)CC2	9.91 ×10⁻⁶ cm/s
O=C1Cc2cc(C(=O)c3ccco3)ccc2N1	35.2 ×10⁻⁶ cm/s
COCCn1ccc2c(C3=CCOCC3)nc(-c3cccc(NC(C)=O)c3)cc21	464 ×10⁻⁶ cm/s
COc1ccc(NC(=O)c2[nH]c(C)cc2C)cc1S(=O)(=O)Nc1ccc(Br)cc1	> 1000 ×10⁻⁶ cm/s
Fc1ccccc1Nc1nc(-c2ccncc2)nc2ccccc12	839 ×10⁻⁶ cm/s
CCCc1ccc(C(=O)NC(=O)c2ccccc2O)cc1	< 1 ×10⁻⁶ cm/s
Cc1cnc(-c2ccccc2C(C)C)nc1NCC1CN(c2cccnc2)C1	> 1000 ×10⁻⁶ cm/s
COc1ccccc1N1CCN(C2CCCCC2NS(=O)(=O)c2ccccc2)CC1 (configuration not stated)	> 1000 ×10⁻⁶ cm/s
Fc1cc(Nc2nc(-c3ccncc3)nc3ccccc23)ccc1-c1ccc(F)c(F)c1F	57.5 ×10⁻⁶ cm/s
CCN(CC)CCCNC(=O)c1oc2c(c1C)-c1nn(Cc3ccc(Cl)cc3)cc1CC2	> 1000 ×10⁻⁶ cm/s
CCOc1cc(-c2nccc3cc(OC)c(OC)cc23)cc(OCC)c1OCC	> 1000 ×10⁻⁶ cm/s

Structure (SMILES)	Papp
O=C(c1cnn(-c2cccc(F)c2)c1-n1cccc1)N1CCN(c2ccccc2F)CC1	> 1000 ×10⁻⁶ cm/s
O=C(NCc1ccccc1)C1CCN(c2nc(-c3ccc(Br)cc3)cs2)CC1	23.2 ×10⁻⁶ cm/s
CC(NCc1ccc2c(c1)nc(NC(=O)c1ccc(-c3cn[nH]c3)s1)n2CC(C)(C)O)C(C)(C)C (configuration not stated)	820 ×10⁻⁶ cm/s
Cc1cnc(-c2ccccc2C(C)C)nc1NCc1ccc(-n2ccnn2)cc1	> 1000 ×10⁻⁶ cm/s
O=[S+]([O-])(Nc1nccs1)c1ccc(NCc2cc(Cl)cc(Br)c2O)cc1	265 ×10⁻⁶ cm/s
O=C(Cc1ccc(Cl)c(Cl)c1)Nc1ccc([S+](=O)([O-])Nc2ccccn2)cc1	651 ×10⁻⁶ cm/s
O=C(Nc1nc(-c2ccccc2)cs1)c1ccncc1NS(=O)(=O)c1ccc(Cl)cc1	294 ×10⁻⁶ cm/s
COc1ccccc1-c1[nH]nc2ncc(-c3ccc(C)cc3)nc12	76.2 ×10⁻⁶ cm/s
N[C@@H](Cc1cc(Br)c(O)c(Br)c1)C(=O)O	3.64 ×10⁻⁶ cm/s
N#Cc1ccccc1-c1csc(N2CCC(C(N)=O)CC2)n1	343 ×10⁻⁶ cm/s
NS(=O)(=O)c1ccc(NC(=O)c2cc3ncccn3n2)cc1	82.5 ×10⁻⁶ cm/s
O=c1[nH]cnc2c1ccn2C1OC(CO)C(O)C1O (configuration not stated)	3.01 ×10⁻⁶ cm/s
Cc1noc(C)c1-c1ccc2ncnc(NCc3cccc(Cl)c3)c2c1	970 ×10⁻⁶ cm/s
COc1ccc(NC(=O)c2ccccc2)cc1S(=O)(=O)Nc1ccc(Br)cc1	731 ×10⁻⁶ cm/s
Cc1ccc(S(=O)(=O)Nc2cnccc2C(=O)Nc2nc(-c3ccccc3F)cs2)cc1	51.2 ×10⁻⁶ cm/s
CC(C)(C#N)c1ccc(N2C(=O)OCc3cnc4ccc(-c5cnc6ccccc6c5)cc4c32)cc1	47.5 ×10⁻⁶ cm/s
NC(=O)C1CCN(c2ncc(-c3ccc4c(c3)OCCO4)s2)CC1	710 ×10⁻⁶ cm/s
O=C(Cc1cccc(OC(F)(F)F)c1)Nc1ccc(CCCCc2nnc(NC(=O)Cc3ccccn3)s2)nn1	161 ×10⁻⁶ cm/s
CCOc1ccc(CCNC(=O)c2cc3cccnc3n2Cc2cccc(C)c2)cc1OCC	> 1000 ×10⁻⁶ cm/s
COc1ccc(S(=O)(=O)N(CC(=O)Nc2ccc(C)cc2)c2ccc(C)cc2)cc1OC	> 1000 ×10⁻⁶ cm/s
COc1cc(Nc2nc(-c3ccncc3)nc3ccccc23)ccc1F	445 ×10⁻⁶ cm/s
O=C(NC1CC1)c1nc(-c2cccnc2)c2cnccn12	31.8 ×10⁻⁶ cm/s

Structure (SMILES)	Papp
CCOC(=O)c1[nH]c(C)c(CCC(=O)N2CCN(c3cc(C)ccc3C)CC2)c1C	> 1000 ×10⁻⁶ cm/s
COc1cccc(CNc2ccc(C(=O)Nc3nccs3)cc2)c1O	> 1000 ×10⁻⁶ cm/s
Nc1ccc(S(=O)(=O)Nc2cnccc2C(=O)Nc2nc(-c3ccccc3)cs2)cc1	101 ×10⁻⁶ cm/s
Cc1cccc(-n2cnc3cc(C(=O)N4CCCC(C(C)C)C4)ccc32)c1 (configuration not stated)	> 1000 ×10⁻⁶ cm/s
COc1cccc(CNCCSc2nnnn2C)c1OCc1ccc(Cl)cc1Cl	> 1000 ×10⁻⁶ cm/s
COc1ccc2[nH]c3c(c2c1)CCNC31CCN(S(=O)(=O)c2c(C)noc2C)CC1	79 ×10⁻⁶ cm/s
CCCNC(=O)Nc1ccc(Oc2ncnc3cc(OC)c(OC)cc23)cc1Cl	362 ×10⁻⁶ cm/s
NC(=O)C1CCN(c2nc(-c3ccc4occc(=O)c4c3)cs2)CC1	106 ×10⁻⁶ cm/s
Cc1cc(-c2nnc3n2CCCCC3)c(C)n1-c1ccc([N+](=O)[O-])cc1	20.8 ×10⁻⁶ cm/s
Nc1nc2c(s1)C(c1cccc(F)c1F)CC(=O)N2 (configuration not stated)	9.86 ×10⁻⁶ cm/s
O=C1Nc2cccc(Cl)c2/C1=C\c1cc(Cl)c(O)c(Cl)c1	93.9 ×10⁻⁶ cm/s
Fc1cc(Nc2nc(-c3ccncc3)nc3ccccc23)ccc1-c1cccnc1	5.4 ×10⁻⁶ cm/s
NC(=O)N1CCN(c2nc(-c3ccc(Br)cc3)cs2)CC1	958 ×10⁻⁶ cm/s
CN(C)c1ccc(-c2csc(N3CCC(C(N)=O)CC3)n2)cc1	3.06 ×10⁻⁶ cm/s
COC(=O)CNC(=O)c1nc(-c2ccc(Cl)nc2)c2cnccn12	103 ×10⁻⁶ cm/s
COc1cc(-c2csc(N3CCC(C(N)=O)CC3)n2)cc(OC)c1OC	257 ×10⁻⁶ cm/s
O=C(c1cnc(N2CCCCC2)c2ccccc12)N1CCN(c2ccc(Cl)cc2)CC1	> 1000 ×10⁻⁶ cm/s
CCOc1ccc(CCNC(=O)c2cc3sccc3n2Cc2ccc(-n3cncn3)cc2)cc1OCC	> 1000 ×10⁻⁶ cm/s
Cc1cc(-c2nnc3n2CCCCC3)c(C)n1-c1ccc(C#N)cc1	215 ×10⁻⁶ cm/s
N#Cc1ccc(-c2csc(N3CCC(C(N)=O)CC3)n2)cc1	406 ×10⁻⁶ cm/s
Fc1cnc(-c2ccccc2C(F)F)nc1NCc1ccc(-c2ccn[nH]2)cc1	> 1000 ×10⁻⁶ cm/s
COc1ccc(-n2nc(C3CCN(C(=O)c4ccccc4)CC3)[nH]c2=O)cc1	331 ×10⁻⁶ cm/s

Structure (SMILES)	Papp
O=C(c1ccc2c(c1)ncn2-c1cccc(Cl)c1)N1CCCCC1	895 ×10⁻⁶ cm/s
COc1cccc(Nc2nc(-c3ccncc3)nc3ccccc23)c1	> 1000 ×10⁻⁶ cm/s
O=C(NCCCCc1ccccc1)C1CCN(c2nc(-c3ccc(Br)cc3)cs2)CC1	5.3 ×10⁻⁶ cm/s
CCOc1ccc(CCNC(=O)c2ccc3ccccc3n2)cc1OCC	> 1000 ×10⁻⁶ cm/s
Cc1ccccc1CSc1nc2ncc(Br)cc2[nH]1	497 ×10⁻⁶ cm/s
CC(C)Nc1oc(-c2cccc3ccccc23)nc1C#N	> 1000 ×10⁻⁶ cm/s
CCOC(=O)C1CCN(c2ncc(-c3ccc4c(c3)OCCCO4)s2)CC1	> 1000 ×10⁻⁶ cm/s
Cc1nc2ccc(NC(=O)c3cc(S(=O)(=O)N(C)c4ccccc4)ccc3Cl)cc2s1	70 ×10⁻⁶ cm/s
C=Cc1ccc(Cn2c(C(=O)O)c(CNCc3ccccc3)c3ccc(OC)cc32)cc1	900 ×10⁻⁶ cm/s
C=C1c2cccc(O)c2C(O)=C2C(=O)[C@]3(O)C(O)=C(C(N)=O)C(=O)[C@@H](N(C)C)[C@@H]3[C@@H](O)[C@H]12	< 1 ×10⁻⁶ cm/s
Cc1ccccc1C(=O)N1CCc2cc(N3CCC(NC(=O)Cc4ccccc4)C3)ccc21 (configuration not stated)	783 ×10⁻⁶ cm/s
NC1CCC(Nc2nc(Nc3ccc(C(=O)N4CCCCC4)cc3)c3ncn(-c4cccc(F)c4)c3n2)CC1 (configuration not stated)	21.8 ×10⁻⁶ cm/s
Cc1ccc(-n2nc3c(N4CCCC(C(=O)NCc5ccccc5C)C4)nnc(C)c3c2C)cc1 (configuration not stated)	173 ×10⁻⁶ cm/s
O=C1C2=C(Nc3ccccc3SC2c2ccco2)c2ccccc21 (configuration not stated)	371 ×10⁻⁶ cm/s
Fc1cc(Nc2nc(-c3ccncc3)nc3ccccc23)ccc1-c1cncnc1	7.26 ×10⁻⁶ cm/s
CCCCOc1ccc(CNC(=O)c2cc3n(n2)CCCN(Cc2ccc(C)cc2)C3=O)cc1	< 1 ×10⁻⁶ cm/s
Cc1ccc(C(=O)Nc2nc(-c3ccccn3)cs2)cc1S(=O)(=O)N1CCOCC1	540 ×10⁻⁶ cm/s
CCc1ccc(NC(=O)c2[nH]c(C)c(C(C)=O)c2C)cc1S(=O)(=O)Nc1ccc(Br)cc1	< 1 ×10⁻⁶ cm/s
O=c1cc(/C=C/c2c(F)cccc2Cl)[nH]c2ccccc12	205 ×10⁻⁶ cm/s
